Experimental data reported in BindingDB's records for doi:10.1021/jm500759v (Griffith University, 2014).

experiment: Inhibition of neuraminidase activity of human parainfluenza virus 1 C35 hemagglutinin-neuraminidase pre-incubated for 20 mins before MUN substrate by methylumbelliferone release based fluorescence assay

Row | SMILES | IC50
1 | CC(=O)N[C@H]1[C@H]([C@H](O)[C@H](O)CO)OC(C(=O)O)=C[C@@H]1O | 63.8 µM
2 | CC(=O)N[C@H]1[C@H]([C@H](O)[C@H](O)CO)OC(C(=O)O)=C[C@@H]1N=[N+]=[N-] | 3.92 µM
3 | CC(CO)C(=O)N[C@H]1[C@H]([C@H](O)[C@H](O)CO)OC(C(=O)O)=C[C@@H]1N=[N+]=[N-] (stereo partly drawn) | 9.49 µM
4 | CC(C)C(=O)N[C@H]1[C@H]([C@H](O)[C@H](O)CO)OC(C(=O)O)=C[C@@H]1N=[N+]=[N-] | 0.5 µM
5 | CC(C)C(=O)N[C@H]1[C@H]([C@H](O)[C@H](O)CO)OC(C(=O)O)=C[C@@H]1O | 3.82 µM
6 | CCC(C)C(=O)N[C@H]1[C@H]([C@H](O)[C@H](O)CO)OC(C(=O)O)=C[C@@H]1N=[N+]=[N-] (stereo partly drawn) | 1.58 µM
7 | [N-]=[N+]=N[C@H]1C=C(C(=O)O)O[C@@H]([C@H](O)[C@H](O)CO)[C@@H]1NC(=O)C1CCC1 | 1.92 µM
8 | CC(C)C(=O)N[C@H]1[C@H]([C@H](O)[C@H](O)CO)OC(C(=O)O)=C[C@@H]1NC(=N)N | > 1000 µM
9 | CC(C)C(=O)N[C@H]1[C@H]([C@H](O)[C@H](O)CO)OC(C(=O)O)=C[C@@H]1N | 261 µM
10 | CC(=O)N[C@H]1[C@H]([C@H](O)[C@H](O)CO)OC(C(=O)O)=C[C@@H]1N | > 1000 µM
11 | CC(O)C(=O)N[C@H]1[C@H]([C@H](O)[C@H](O)CO)OC(C(=O)O)=C[C@@H]1N=[N+]=[N-] (stereo partly drawn) | 68.1 µM
12 | [N-]=[N+]=N[C@H]1C=C(C(=O)O)O[C@@H]([C@H](O)[C@H](O)CO)[C@@H]1NC(=O)C1CC1 | 0.91 µM
13 | C/C=C(\C)C(=O)N[C@H]1[C@H]([C@H](O)[C@H](O)CO)OC(C(=O)O)=C[C@@H]1N=[N+]=[N-] | 7.76 µM
